This note sets out measurements from publication doi:10.1101/2024.08.19.608619, “Discovery of potent SARS-CoV-2 nsp3 macrodomain inhibitors uncovers lack of translation to cellular antiviral response” (bioRxiv, 2024).

Series [1] in a line: In vitro kinetic solubility. As to conditions: In vitro kinetic solubility, ph 7.4.
Series [2] in a line: Permeability Papp (AB) MDR1/MDCKII. The following applies: In vitro MDR1-MDCKII permeability; for papp_a_to_b_mean: A to B; for perc_recovery_a_to_b_mean: recovery A to B.
A short description of series [3]: Hepatic microsomal stability, HLM. The format is in vitro ADME, human. The following applies: In vitro human liver microsomal stability; for perc_remaining_no_cofactor: no cofactor. In general terms: Microsomes from liver hold many membrane-bound enzymes, among them those of drug oxidation.
The nature of the next series: LogD. As to conditions: pH 7.4; In vitro LogD.
The nature of series [4]: Hepatic microsomal stability, MLM. In kind it is in vitro ADME.
[5] abbreviates: In vitro mouse liver microsomal stability.
[6] abbreviates: In vitro mouse liver microsomal stability, no cofactor.
[7] abbreviates: In vitro mouse liver microsomal stability; no cofactor.

The structures appear in SMILES notation. In brackets after ≈: the same amount, converted by molar mass.

In series [1], `CC(C)[C@H](Nc1ncnc2[nH]c(-c3cnn(C)c3C#N)cc12)c1ccc2c(c1)NC(=O)CO2` (single isomer, unassigned) [ASAP-0013256] returned a solubility_mean of 19 µM (≈ 8.41 µg/mL). In series [2] (no inhibitor), this compound showed a papp_a_to_b_mean of 2.35 ×10⁻⁶ cm/s and a perc_recovery_a_to_b_mean of 78.9%. Also, in series [3], the clint was 52.0 µL/min/mg, the perc_remaining turned out to be 44.0%, the t_half came to 32.3 min and the perc_remaining_no_cofactor is given as 109.0%. For the same compound, in “LogD”, the logd is recorded as 3.4. Moreover, in series [4] (setting [5]), the clint was 147.0 µL/min/mg, the perc_remaining amounted to 10.0% and the t_half was determined as 11.3 min. Also, the perc_remaining_no_cofactor in series [4] (setting [6]) turned out to be 102.0%.
`CC(C)[C@H](Nc1ncnc2[nH]c(-c3cnn(CC(=O)N(C)C)c3)cc12)c1ccc2c(c1)OCCO2` (single isomer, unassigned) [ASAP-0013833] had a solubility_mean in series [1] of 19 µM (≈ 9.04 µg/mL). In series [2] (no inhibitor), this compound displayed a papp_a_to_b_mean of 2.05 ×10⁻⁶ cm/s and a perc_recovery_a_to_b_mean of 82.0%. In series [3], the clint was found to be 500.0 µL/min/mg, the perc_remaining was found to be 0.0%, the t_half is recorded as 3.3 min and the perc_remaining_no_cofactor is recorded as 115.0%. The compound further showed a logd in the series “LogD” of 2.9. In addition, in series [4] (setting [5]), the clint came out at 35.0 µL/min/mg, the perc_remaining was 54.0% and the t_half was 48.1 min. For the same compound, the perc_remaining_no_cofactor in series [4] (setting [6]) is listed as 102.0%.
For the compound `CC(C)[C@H](Nc1ncnc2[nH]c(-c3cnn(CC(=O)N(C)C)c3)cc12)c1ccc2c(c1)OCCO2` (single isomer, unassigned) [ASAP-0013837], the solubility_mean in series [1] came out at 205 µM (≈ 97.5 µg/mL). Further, in series [2] (no inhibitor), the papp_a_to_b_mean is 1.62 ×10⁻⁶ cm/s and the perc_recovery_a_to_b_mean was 87.9%. Besides, in series [3], the clint came out at 108.0 µL/min/mg, the perc_remaining stood at 18.0%, the t_half came to 15.4 min and the perc_remaining_no_cofactor is listed as 114.0%. In “LogD”, this compound showed a logd of 3.0. Further, in series [4] (setting [5]), the clint amounted to 45.0 µL/min/mg, the perc_remaining was 48.0% and the t_half came out at 36.8 min. In addition, the perc_remaining_no_cofactor in series [4] (setting [6]) came to 114.0%.
The compound `CC(C)[C@H](CO)Nc1ncnc2[nH]ccc12` [ASAP-0000453] registered a solubility_mean in series [1] of at least 400 µM. Also, in series [2] (mean), the papp_a_to_b_mean worked out at 13.1 ×10⁻⁶ cm/s and the perc_recovery_a_to_b_mean came to 89.0%. Moreover, in series [3], the clint came out at 6.0 µL/min/mg, the perc_remaining is listed as 119.0%, the t_half is 289.0 min and the perc_remaining_no_cofactor is 99.0%. The logd in the series “LogD” was 1.69. For the same compound, in series [4] (setting [5]), the clint turned out to be 10.0 µL/min/mg, the perc_remaining is 90.0% and the t_half came out at 171.1 min. The perc_remaining_no_cofactor in series [4] (setting [7]) was found to be 93.0%.
For `CNC(=O)c1c[nH]c2ncnc(N[C@@H](c3ccc4c(c3)OCCO4)C(C)C)c12` [ASAP-0008406], in series [1], the solubility_mean came out at 319 µM (≈ 122 µg/mL). Besides, in series [2] (mean), the papp_a_to_b_mean came out at 16.2 ×10⁻⁶ cm/s and the perc_recovery_a_to_b_mean worked out at 92.4%. Further, in series [3], the clint amounted to 79.0 µL/min/mg, the perc_remaining is on record as 27.0%, the t_half was 21.2 min and the perc_remaining_no_cofactor is listed as 113.0%. Moreover, the logd in “LogD” is listed as 3.6. For the same compound, in series [4] (setting [5]), the clint was determined as 88.0 µL/min/mg, the perc_remaining worked out at 20.0% and the t_half is 19.0 min. Besides, the perc_remaining_no_cofactor in series [4] (setting [7]) worked out at 95.0%.
On to `CC(C)[C@H](Nc1ncnc2[nH]ccc12)c1ccc2c(c1)NC(=O)CO2` [ASAP-0008430], for which the solubility_mean in series [1] amounted to 371 µM (≈ 125 µg/mL). In series [2] (mean), the papp_a_to_b_mean was 3.4 ×10⁻⁶ cm/s and the perc_recovery_a_to_b_mean was determined as 90.0%. In series [3], the clint worked out at 10.0 µL/min/mg, the perc_remaining is given as 86.0%, the t_half came to 160.3 min and the perc_remaining_no_cofactor is on record as 95.0%. The same compound yielded a logd in the series “LogD” of 1.8. Further, in series [4] (setting [5]), the clint was found to be 37.0 µL/min/mg, the perc_remaining is listed as 54.0% and the t_half was 45.1 min. Moreover, in series [4] (setting [7]), the perc_remaining_no_cofactor worked out at 89.0%.
Turning to `CC(C)[C@H](Nc1ncnc2[nH]c(-c3cnn(CC(N)=O)c3)cc12)c1ccc2c(c1)OCCO2` [ASAP-0008449], in series [1], the solubility_mean was found to be 280 µM (≈ 125 µg/mL). For the same compound, in series [2] (no inhibitor), the papp_a_to_b_mean worked out at 1.09 ×10⁻⁶ cm/s and the perc_recovery_a_to_b_mean turned out to be 87.8%. In addition, in series [3], the clint was 47.0 µL/min/mg, the perc_remaining is 43.0%, the t_half is on record as 35.4 min and the perc_remaining_no_cofactor was found to be 102.0%. The compound further displayed a logd in the series “LogD” of 2.9. For the same compound, in series [4] (setting [5]), the clint came out at 16.0 µL/min/mg, the perc_remaining was 80.0% and the t_half is on record as 103.7 min. Further, in series [4] (setting [6]), the perc_remaining_no_cofactor was 104.0%.
Take `CNC(=O)c1cc2c(N[C@@H](c3ccc4c(c3)NC(=O)CO4)C(C)C)ncnc2[nH]1` [ASAP-0008571]: the solubility_mean in series [1] was found to be 372 µM (≈ 147 µg/mL). Further, in series [2] (mean), the papp_a_to_b_mean stood at 0.873 ×10⁻⁶ cm/s and the perc_recovery_a_to_b_mean is given as 88.1%. Also, in series [3], the clint stood at 52.0 µL/min/mg, the perc_remaining stood at 39.0%, the t_half is given as 32.0 min and the perc_remaining_no_cofactor is reported as 94.0%. The compound further returned a logd in “LogD” of 2.8. Also, in series [4] (setting [5]), the clint came to 20.0 µL/min/mg, the perc_remaining turned out to be 71.0% and the t_half is listed as 84.4 min. In addition, the perc_remaining_no_cofactor in series [4] (setting [6]) was determined as 103.0%.
Take `CC(C)[C@@H](Nc1ncnc2[nH]c(-c3cnn(C)c3C#N)cc12)c1ccc2c(n1)NC(=O)CO2` [ASAP-0008644]: in series [1], the solubility_mean was determined as 29 µM (≈ 12.9 µg/mL). In series [2] (mean), the papp_a_to_b_mean is 9.83 ×10⁻⁶ cm/s and the perc_recovery_a_to_b_mean was found to be 91.2%. Further, in series [3], the clint came out at 70.0 µL/min/mg, the perc_remaining was determined as 30.0%, the t_half is given as 23.7 min and the perc_remaining_no_cofactor worked out at 97.0%. The compound further gave a logd in “LogD” of 3.7. In addition, in series [4] (setting [5]), the clint is 145.0 µL/min/mg, the perc_remaining is recorded as 9.0% and the t_half is 11.5 min. In series [4] (setting [6]), the perc_remaining_no_cofactor is 92.0%.
For the compound `CC(C)[C@@H](Nc1ncnc2[nH]c(-c3cnn(CC(N)=O)c3)cc12)c1ccc2c(n1)OCCO2` [ASAP-0008646], the solubility_mean in series [1] was determined as 385 µM (≈ 173 µg/mL). For the same compound, in series [2] (mean), the papp_a_to_b_mean worked out at 2.46 ×10⁻⁶ cm/s and the perc_recovery_a_to_b_mean came out at 73.0%. In series [3], the clint was determined as 14.0 µL/min/mg, the perc_remaining worked out at 77.0%, the t_half was found to be 120.2 min and the perc_remaining_no_cofactor was determined as 95.0%. The compound further registered a logd in “LogD” of 2.4. Also, in series [4] (setting [5]), the clint was 12.0 µL/min/mg, the perc_remaining was determined as 83.0% and the t_half worked out at 145.2 min. Further, the perc_remaining_no_cofactor in series [4] (setting [6]) was determined as 104.0%.
Take `CC(C)[C@@H](Nc1ncnc2[nH]c(-c3cnn(C)c3C#N)cc12)c1ccc2c(c1)S(=O)(=O)CCC2` [ASAP-0008651]: in series [1], the solubility_mean stood at 34 µM (≈ 16.2 µg/mL). In series [2] (mean), the papp_a_to_b_mean came out at 1.97 ×10⁻⁶ cm/s and the perc_recovery_a_to_b_mean is 81.6%. In series [3], the clint was 490.0 µL/min/mg, the perc_remaining is listed as 1.0%, the t_half worked out at 3.4 min and the perc_remaining_no_cofactor is recorded as 94.0%. Also, the logd in “LogD” amounted to 3.6. For the same compound, in series [4] (setting [5]), the clint was found to be 440.0 µL/min/mg, the perc_remaining is 0.0% and the t_half was 3.8 min. The perc_remaining_no_cofactor in series [4] (setting [7]) turned out to be 96.0%.
`CC(C)[C@@H](Nc1ncnc2[nH]c(-c3cnn(C)c3)cc12)c1ccc2c(c1)S(=O)(=O)CCC2` [ASAP-0008678] showed a solubility_mean in series [1] of 94 µM (≈ 42.4 µg/mL). In series [2] (mean), this compound gave a papp_a_to_b_mean of 1.73 ×10⁻⁶ cm/s and a perc_recovery_a_to_b_mean of 85.6%. Also, in series [3], the clint was determined as 141.0 µL/min/mg, the perc_remaining was 10.0%, the t_half is 11.9 min and the perc_remaining_no_cofactor is listed as 102.0%. Also, the logd in “LogD” is given as 3.3. Further, in series [4] (setting [5]), the clint stood at 155.0 µL/min/mg, the perc_remaining amounted to 7.0% and the t_half is on record as 10.8 min. Moreover, the perc_remaining_no_cofactor in series [4] (setting [7]) is recorded as 102.0%.
`CNC(=O)c1cc2c(N[C@@H](c3ccc4c(c3)S(=O)(=O)CCC4)C(C)C)ncnc2[nH]1` [ASAP-0008685]: in series [1], the solubility_mean is 369 µM (≈ 158 µg/mL). In series [2] (mean), the papp_a_to_b_mean is 0.46 ×10⁻⁶ cm/s and the perc_recovery_a_to_b_mean stood at 104.0%. In series [3], the clint turned out to be 77.0 µL/min/mg, the perc_remaining is 25.0%, the t_half stood at 21.7 min and the perc_remaining_no_cofactor is on record as 101.0%. For the same compound, the logd in the series “LogD” turned out to be 2.4. Further, in series [4] (setting [5]), the clint was 46.0 µL/min/mg, the perc_remaining came to 47.0% and the t_half worked out at 36.5 min. Further, the perc_remaining_no_cofactor in series [4] (setting [7]) came out at 100.0%.
